What is called IC50 is the concentration at which inhibition is half-maximal.

The test system of series [1] is α-glucosidase. Briefly: α-glucosidase inhibition assay (PNPG substrate). The format is biochemical. The following applies: for α-glucosidase % inhibition: 10 μL (500 µM) sample. As to the method:
To carry out this reaction, 10 μL (500 µM) of 10 mM sample solution (prepared in DMSO) was added to ELISA 96 microwell plate. Then, 40 μL of 0.5U/ml α glucosidase was mixed by adding 120 μL of 0.1M phosphate buffer with a pH value of 7.4. The solution was incubated at 37 °C for 5 min. The reaction proceeded further by adding 40 μL of 5 mM substrate solution (PNPG) and incubation was done for half an hour at 37 °C. After performing the incubation microplate reader was used to read the absorbance of the reaction mixture at 405 nm wavelength. […] The inhibition percentage of the sample and positive control were calculated using the following formula. Inhibition%=B-S/B∗100
(§1) At this point, the B and S denote absorbance for the blank and samples. Blank contains only DMSO instead of sample.

Series [2] concerns α-amylase. Briefly: α-amylase inhibition assay (starch substrate, DNSA). The format is biochemical. The method, then:
ELISA plate was used for inhibition assay and it was loaded with 40 µL of the sample. Enzyme prepared in 0.02 M sodium phosphate buffer with pH 6.9 (40 µL) was further added to wells. The solution in wells was kept on incubation at 37 °C for 10 min. Moreover, 40 µL starch solution prepared in 1% DMSO was added to the solution and put on incubation for 10 min at 25 °C. At last, to stop the reaction, 100 µL of DNSA reagent was added to the solution. The mixture was put in a boiling water bath for 5 min and cooled down at room temperature after incubation. For dilution of the reaction mixture, 400 µL of distilled water was added to the solution, and the absorbance of the reaction mixture was measured at 540 nm wavelength. To calculate the percentage inhibition the following formula was used. Inhibition%=B-S/B∗100
as §1

For series [3], the system named is α-glucosidase. The series can be described thus: Kinetics study (α-glucosidase), Lineweaver–Burk plot. The format is biochemical. As to the method:
(p-nitrophenyl-α-D-glucoside) was used for reaction. In addition, varying concentrations (0.1 mM, 0.25 mM, 0.5 mM, 0.75 mM, 1 mM) sample/inhibitor [V] was used. The type of inhibition was determined by the Lineweaver–Burk plot, while the Michaelis Menten equation was used to find the value of the inhibition constant. Vo=VmaxS/Km+S 1/Vo=Km+S/VmaxS=km/Vmax1/S+1/Vmax
The initial rate of reaction is indicated by V0, Michaelis Menten's constant signifies km, Km/Vmax represents to slope, and 1/Vmax denotes the y-intercept. The value of the inhibitory constant was calculated by plotting the secondary graph. Straight-line produced by slope versus [V] intersecting x-axis indicates ki value while ki′ was produced by intersecting line plotted between y-intercept and [V].

Series [4] deals with BALB/c mice. Briefly: Biochemical investigation of blood in alloxan-induced diabetic mice. On the set-up: Serum insulin level: unit not given here. The following applies: for Serum creatinine / Cholesterol in blood / HbA1c, % of glycated haemoglobin: treated group; for Serum creatinine: diabetic control 1.9 mg/dL; for Cholesterol in blood: diabetic control 120 mg/dL; for HbA1c, % of glycated haemoglobin: diabetic control 9%; for Serum insulin level: normal mice about 15 µM/L. The format is in vivo. The method, then:
(§2) All experimental protocols adhered to the guidelines outlined in the NIH Guide for Care and Use of Laboratory Animals and the ARRIVE guidelines for animal experimentation. The Animal Care and Use Committee (ACUC) of Government College University Faisalabad (GCUF-2021-09) provided approval for the study. For in vivo study, BALB/c mice (weight 26–33 g) were acquired from the Department of Pharmacy and kept in the optimized environment (12 h dark, 12 h light) with a regular pellet diet and normal tab water. Diabetes induction in mice was done through a standard protocol reported by[21] with slight amendments. Alloxan monohydrate 150 mg/kg (following the body weight of mice) was liquified in normal saline and injected intraperitoneally in mice fasted for 16 h[22],[23]. Furthermore, screening of mice was done based on their blood glucose levels and mice with blood glucose levels more than 1.26 g/L were considered diabetic, and therefore taken for further experiment/examination. The mice diagnosed with diabetes were classified into five groups and five mice in each group. […] Two doses were selected because they indicate how the organism's response changes at different levels of exposure. This information is crucial for determining safe dosage levels for humans or animals.
For biochemical testing and histological examination, mice from each group were collected, and data were produced for different testing parameters, including fasting blood glucose, serum creatinine, serum insulin, HbA1c, triglyceride and cholesterol. A Countour TS glucometer was used to measure mice's fasting blood glucose levels. While Clinical Chemistry Reagents SRL (CCR) kit was used to measure serum creatinine and triglyceride levels. Moreover, the VITRO SCIENT kit was utilized to measure the serum insulin, cholesterol and HbA1c levels. For histological analysis, mice were sacrificed and their organs (liver, kidney and pancreas) were washed with cold saline and preserved in a 10% formalin solution. A compound microscope from the Department of Physiology, Government College University Faisalabad, was used for tissue investigation under a controlled and organized environment. Pictures of tissue samples were taken through OPTIKA software.

Series [5] concerns α-amylase. The series can be described thus: Kinetics study (α-amylase), Lineweaver–Burk plot. The format is biochemical. The method, then:
Varying concentrations (0.25%, 0.5%, 1%, 1.5%, 2%) of substrate [S] (starch) were used with constant enzyme concentration. Same as substrate, varying concentration (1 mM, 3 mM, 5 mM, 7 mM, 9 mM) of the inhibitor [V] was used. Lineweaver–Burk plots were used to determine the type of enzyme inhibition and the Michaelis Menten equation was used to find the value of inhibition constant. Vo=VmaxS/Km+S 1/Vo=Km+S/VmaxS=km/Vmax1/S+1/Vmax
The initial reaction rate is indicated by V0, Michaelis Menten's constant signifies km, Km/Vmax represents slope, and 1/Vmax denotes the y-intercept. The value of the inhibitory constant was calculated by plotting the secondary graph. Straight-line produced by slope versus [V] intersecting x-axis indicates ki value while ki′ was produced by intersecting line plotted between y-intercept and [V].

The test system of series [6] is BALB/c mice. Briefly: Histology of liver, kidney and pancreas and side effects in alloxan-induced diabetic mice. The format is in vivo. As to the method: as §2, with “animals. […]” for “animals.”

Entries after “also recorded” stand apart in the source; their conditions may differ.

`C[C@H]1O[C@H](O[C@H]2[C@H](O)[C@@H](O)[C@@H](O[C@H]3[C@H](O)[C@@H](O)C(O)O[C@@H]3CO)O[C@@H]2CO)[C@H](O)[C@@H](O)[C@@H]1N[C@H]1C=C(CO)[C@@H](O)[C@H](O)[C@H]1O` (some centres unmarked) [Acarbose, reference compound] came in with a α-glucosidase % inhibition in series [1] of 37 ± 0.026%. The α-amylase % inhibition in series [2] is recorded as 33 ± 0.042%. Also, in series [3], the “Type of inhibition, α-glucosidase” value is reported as “competitive inhibition”. For the same molecule, in series [4], the Serum creatinine was 0.8 mg/dL; the Cholesterol in blood stood at 100 mg/dL; the “HbA1c, % of glycated haemoglobin” value was 5%.

With `C/C(=N\NC(=O)C1=C(O)c2ccccc2S(=O)(=O)N1)c1ccccc1` [Compound S1, (E)-4-Hydroxy-N′-(1-phenylethylamine)-2H-benzo[e][1,2]thiazine-3-carbohydrazide1,1-dioxide], the IC50 in series [1] came to 3.91 µM. The α-glucosidase % inhibition in series [1] (500 µM) came to 55 ± 0.047%. In series [2], this molecule returned an IC50 of 8.89 µM and a α-amylase % inhibition of 46 ± 0.091%. Besides, the “Type of inhibition, α-glucosidase” value in series [3] is listed as “competitive type of inhibition; also recorded: competitively”. For the same molecule, in series [5], the “Type of inhibition, α-amylase” value is “competitive type of inhibition; also recorded: competitively”. This molecule had a Serum insulin level in series [4] (double dose (7.8 mg/kg)) of 30. The “Fasting blood sugar level” value in series [4] (single and double doses (3.9 and 7.8 mg/kg), diabetic control > 300 mg/dL) was determined as 110 mg/dL. In series [4] (single dose (3.9 mg/kg)), this molecule gave a Serum insulin level of 25. For the same molecule, in series [4], the Serum creatinine was 0.6 mg/dL; the Cholesterol in blood came to 85 mg/dL; the “HbA1c, % of glycated haemoglobin” value stood at 3%. The “Side effects in the mice model” value in series [6] (after administration to mice) was “no significant side effect”. For the same molecule, in series [6] (diabetic mice dissected after 21 days of treatment), the “Histology: necrosis / toxicity in liver, kidney and pancreas” value is “low necrosis rate; also recorded: less toxic in the kidney, liver, and pancreas; also recorded: no toxicity within the liver and pancreatic tissues; also recorded: minimum rate of necrosis and toxicity”.
